Assay results: patent publication US8134015B2, “Compound inhibiting in vivo phosphorous transport and medicine containing the same” (Kyowa Hakko Kirin Co., Ltd., priority 2003, dated 2012)

Target: T1, rat NaPi-2b (Rattus norvegicus, UniProt Q9JJ09)
T1 construct: expressed in transfected cells; host or cells: Xenopus oocytes injected with cRNA
T1 sequence (Q9JJ09 1-695): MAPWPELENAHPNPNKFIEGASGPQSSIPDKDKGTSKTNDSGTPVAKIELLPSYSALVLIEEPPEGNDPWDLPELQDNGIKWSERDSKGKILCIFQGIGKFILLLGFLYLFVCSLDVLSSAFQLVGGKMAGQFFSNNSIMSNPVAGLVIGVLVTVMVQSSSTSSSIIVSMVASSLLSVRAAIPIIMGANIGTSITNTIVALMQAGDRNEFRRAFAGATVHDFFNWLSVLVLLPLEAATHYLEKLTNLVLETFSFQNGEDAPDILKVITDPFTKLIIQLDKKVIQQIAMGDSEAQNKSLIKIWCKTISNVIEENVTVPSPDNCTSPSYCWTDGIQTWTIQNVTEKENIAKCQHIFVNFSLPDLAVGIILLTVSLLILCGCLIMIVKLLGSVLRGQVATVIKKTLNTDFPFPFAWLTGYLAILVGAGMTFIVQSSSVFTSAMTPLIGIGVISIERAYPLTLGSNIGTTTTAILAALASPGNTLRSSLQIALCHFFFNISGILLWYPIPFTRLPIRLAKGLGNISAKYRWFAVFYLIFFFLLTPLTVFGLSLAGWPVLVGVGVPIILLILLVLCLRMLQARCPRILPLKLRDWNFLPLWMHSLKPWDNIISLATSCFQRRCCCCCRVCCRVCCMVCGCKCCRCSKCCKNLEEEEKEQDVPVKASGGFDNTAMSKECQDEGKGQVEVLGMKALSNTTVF
Assay: Sodium-dependent phosphate uptake of Xenopus oocytes which expressed NaPi-2b (32P)
Type: cell-based
Details: Xenopus oocytes expressing rat NaPi-2b, 32P radioactive phosphorus; read-out: IC50 (phosphate uptake inhibitory activity)
Outline: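 Steps: rat NaPi-2b cDNA cloned from small intestine; cRNA made and injected into oocytes; 2-day expression; 32P phosphate uptake with compound; % inhibition at 300/100 μM taken from one curve.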

**Q.** With `O=C(Nc1ccc(Cl)cc1C(=O)N/N=C/c1ccc(Cl)c(C(F)(F)F)c1)c1cccc(CN(CCO)CCO)c1` [Compound 407, 3-{[Bis-(2-hydroxy-ethyl)-amino]-methyl}-N-[4-chloro-2-(4-chloro-3-trifluoromethyl-benzylidene-hydrazinocarbonyl)-phenyl]-benzamide] as the compound, how does the IC50 read?
**A.** 0.57 µM

**Q.** Which IC50 does the source give for `O=C(Nc1sc2c(c1C(=O)N/N=C/c1ccc(Cl)c(C(F)(F)F)c1)CCCC2)c1cccc(CSCCCO)c1` [Compound 608, N-[3-(4-Chloro-3-trifluoromethyl-benzylidene-hydrazinocarbonyl)-4,5,6,7-tetrahydro-benzo[b]thiophen-2-yl]-3-(3-hydroxy-propylsulfanylmethyl)-benzamide] here?
**A.** < 0.3 µM

**Q.** Which IC50 does the source give for `COc1ccc(/C=N/n2c(-c3cccc(CSc4nc[nH]n4)c3)nc3sc4c(c3c2=O)CCCC4)cc1` [Compound 651, 3-[(4-Methoxy-benzylidene)-amino]-2-[3-(1H-[1,2,4]triazol-3-ylsulfanylmethyl)-phenyl]-5,6,7,8-tetrahydro-3H-benzo[4,5]thieno[2,3-d]pyrimidin-4-one] here?
**A.** 263 µM

**Q.** For `O=C(Nc1ccc(N2CCCCC2)cc1C(=O)N/N=C/c1cccc(F)c1)c1cccc(CN2CCC(O)CC2)c1` [Compound 873, N-[2-(3-Fluoro-benzylidene-hydrazinocarbonyl)-4-piperidin-1-yl-phenyl]-3-(4-hydroxy-piperidin-1-ylmethyl)-benzamide], which IC50 is on record?
**A.** 0.66 µM

**Q.** Which IC50 does the source give for `Cc1csc(NC(=O)c2cccc(CN(CC(C)O)CC(C)O)c2)c1C(=O)N/N=C/c1ccc(F)cc1` (stereo not shown) [Compound 589, 3-{[Bis-(2-hydroxy-propyl)-amino]-methyl}-N-[3-(4-fluoro-benzylidene-hydrazinocarbonyl)-4-methyl-thiophen-2-yl]-benzamide] here?
**A.** < 3 µM

**Q.** Which IC50 does the source give for `COc1ccc(C(=O)Nc2ccccc2C(=O)N/N=C/c2ccc(OC(F)(F)F)cc2)cc1OC` [Compound 33, 3,4-Dimethoxy-N-[2-(4-trifluoromethoxy-benzylidene-hydrazinocarbonyl)-phenyl]-benzamide] here?
**A.** 15 µM

**Q.** For `COc1ccc(/C=N/NC(=O)c2ccccc2NC(=O)c2ccc(F)cc2)cc1Br` [Compound 102, N-[2-(3-Bromo-4-methoxy-benzylidene-hydrazinocarbonyl)-phenyl]-4-fluoro-benzamide], which IC50 is on record?
**A.** 5.58 µM

**Q.** How did the IC50 turn out when `O=C(Nc1sc2c(c1C(=O)N/N=C/c1ccc(F)cc1)CCCC2)c1cccc(CN2CCC(N3CCCCC3)CC2)c1` [Compound 617, 3-[1,4′]Bipiperidinyl-1′-ylmethyl-N-[3-(4-fluoro-benzylidene-hydrazinocarbonyl)-4,5,6,7-tetrahydro-benzo[b]thiophen-2-yl]-benzamide] was run?
**A.** 3.68 µM

**Q.** `CCCN(CCC)c1ccc(NC(=O)c2cccc(CN(C)CCN(CC)CC)c2)c(C(=O)N/N=C/c2ccc(OC)cc2)c1` [Compound 912, 3-{[(2-Diethylamino-ethyl)-methyl-amino]-methyl}-N-[4-dipropylamino-2-(4-methoxy-benzylidene-hydrazinocarbonyl)-phenyl]-benzamide] was tested. Which IC50 did it give?
**A.** 1.04 µM

**Q.** Which IC50 does the source give for `Cc1cccc(/C=N/NC(=O)c2cc(Cl)ccc2NC(=O)c2cccc(CSc3nnnn3CCN(C)C)c2)c1` [Compound 464, N-[4-Chloro-2-(3-methyl-benzylidene-hydrazinocarbonyl)-phenyl]-3-[1-(2-dimethylamino-ethyl)-1H-tetrazol-5-ylsulfanylmethyl]-benzamide] here?
**A.** 5 µM

**Q.** With `O=C(Nc1ccc(Br)cc1C(=O)N/N=C/c1cccc(OCCO)c1)c1ccncc1` [Compound 350, N-{4-Bromo-2-[3-(2-hydroxy-ethoxy)-benzylidene-hydrazinocarbonyl]-phenyl}-isonicotinamide] as the compound, how does the IC50 read?
**A.** 25.3 µM

**Q.** `O=C(Nc1ccccc1C(=O)N/N=C/c1ccc(F)cc1)c1ccccn1` [Compound 506, Pyridin-2-carboxylic acid [2-(4-fluoro-benzylidene-hydrazinocarbonyl)-phenyl]-amide] was tested. Which IC50 did it give?
**A.** 19.5 µM

**Q.** `COc1ccccc1/C=C/C=N/NC(=O)c1cc(Br)ccc1NC(=O)c1ccncc1` [Compound 353, N-{4-Bromo-2-[3-(2-methoxy-phenyl)-allylidene-hydrazinocarbonyl]-phenyl}-isonicotinamide] was tested. Which IC50 did it give?
**A.** 8.85 µM

**Q.** With `COc1ccc(/C=N/NC(=O)c2cc(Cl)ccc2NC(=O)c2cccc(CN3CCC(N4CCCCC4)CC3)c2)cc1` [Compound 375, 3-[1,4′]Bipiperidinyl-1′-ylmethyl-N-[4-chloro-2-(4-methoxy-benzylidene-hydrazinocarbonyl)-phenyl]-benzamide] as the compound, how does the IC50 read?
**A.** 24.7 µM

**Q.** `Cc1ccc(/C=N/NC(=O)c2cc(Br)ccc2NC(=O)c2ccc(CN(CC(C)O)CC(C)O)cc2)cc1` (stereo not shown) [Compound 304, 4-{[Bis-(2-hydroxy-propyl)-amino]-methyl}-N-[4-bromo-2-(4-methyl-benzylidene-hydrazinocarbonyl)-phenyl]-benzamide] was tested. Which IC50 did it give?
**A.** 1.23 µM

**Q.** For `COc1ccc(C(=O)Nc2ccccc2C(=O)N/N=C/c2ccc(F)cc2)cc1OC` [Compound 16, N-[2-(4-Fluoro-benzylidene-hydrazinocarbonyl)-phenyl]-3,4-dimethoxy-benzamide], which IC50 is on record?
**A.** 2.3 µM

**Q.** With `O=C(Nc1ccc(Br)cc1C(=O)N/N=C/c1ccc(Cl)c(C(F)(F)F)c1)c1ccc(CN2CCC(O)CC2)cc1` [Compound 329, N-[4-Bromo-2-(4-chloro-3-trifluoromethyl-benzylidene-hydrazinocarbonyl)-phenyl]-4-(4-hydroxy-piperidin-1-ylmethyl)-benzamide] as the compound, how does the IC50 read?
**A.** 5.63 µM

**Q.** `O=C(Nc1ccccc1C(=O)N/N=C/c1cccc(O)c1)c1cccc(F)c1` [Compound 85, 3-Fluoro-N-[2-(3-hydroxy-benzylidene-hydrazinocarbonyl)-phenyl]-benzamide] was tested. Which IC50 did it give?
**A.** 2 µM

**Q.** With `Cc1cccc(/C=N/NC(=O)c2cc(Cl)ccc2NC(=O)c2cccc(CN(CCO)CCO)c2)c1` [Compound 404, 3-{[Bis-(2-hydroxy-ethyl)-amino]-methyl}-N-[4-chloro-2-(3-methyl-benzylidene-hydrazinocarbonyl)-phenyl]-benzamide] as the compound, how does the IC50 read?
**A.** 2.18 µM

**Q.** With `Cc1ccc(/C=N/NC(=O)c2cscc2NC(=O)c2cccc(CN(CC(C)O)CC(C)O)c2)cc1C` (stereo not shown) [Compound 977, 3-{[Bis-(2-hydroxy-propyl)-amino]-methyl}-N-[4-(3,4-dimethyl-benzylidene-hydrazinocarbonyl)-thiophen-3-yl]-benzamide] as the compound, how does the IC50 read?
**A.** 10.1 µM

**Q.** With `CCN(CCO)Cc1cccc(C(=O)Nc2ccc(Cl)cc2C(=O)N/N=C/c2ccc(C)cc2)c1` [Compound 425, N-[4-Chloro-2-(4-methyl-benzylidene-hydrazinocarbonyl)-phenyl]-3-{[ethyl-(2-hydroxy-ethyl)-amino]-methyl}-benzamide] as the compound, how does the IC50 read?
**A.** < 3 µM

**Q.** With `COc1ccc(C(=O)Nc2ccc(I)cc2C(=O)N/N=C/c2ccc(C)cc2)cc1OC` [Compound 207, N-[4-Iodo-2-(4-methyl-benzylidene-hydrazinocarbonyl)-phenyl]-3,4-dimethoxy-benzamide] as the compound, how does the IC50 read?
**A.** < 1 µM

Same assay, conditions: phosphate uptake, oocytes expressing rat NaPi-2b; 300 μM, determined from inhibition curve

**Q.** With `CCN(CC)CCN(C)Cc1cccc(C(=O)Nc2c(C)csc2C(=O)N/N=C/c2ccc(C)c(C)c2)c1` [Compound 711, 3-{[(2-Diethylamino-ethyl)-methyl-amino]-methyl}-N-[2-(3,4-dimethyl-benzylidene-hydrazinocarbonyl)-4-methyl-thiophen-3-yl]-benzamide] as the compound, how does the inhibition at 300 µM read?
**A.** 81%

**Q.** Which inhibition at 300 µM does the source give for `Cc1ccc(/C=N/NC(=O)c2cc(Cl)ccc2NC(=O)c2cnc3ccccc3n2)cc1C` [Compound 1005, Quinoxaline-2-carboxylic acid [4-chloro-2-(3,4-dimethyl-benzylidene-hydrazinocarbonyl)-phenyl]-amide] here?
**A.** 59.1%

**Q.** For `CCSCCNCc1ccc(C(=O)Nc2ccc(Br)cc2C(=O)N/N=C/c2cccc(C)c2)cc1` [Compound 766, N-[4-Bromo-2-(3-methyl-benzylidene-hydrazinocarbonyl)-phenyl]-4-[(2-ethylsulfanyl-ethylamino)-methyl]-benzamide], which inhibition at 300 µM is on record?
**A.** 81.9%

**Q.** How did the inhibition at 300 µM turn out when `CCN(CC)CCN(C)Cc1cccc(-c2nc3ccc(N4CCCN(C)CC4)cc3c(=O)n2/N=C/c2ccc(OC)cc2)c1` [Compound 933, 2-(3-{[(2-Diethylamino-ethyl)-methyl-amino]-methyl}-phenyl)-3-[(4-methoxy-benzylidene)-amino]-6-(4-methyl-[1,4]diazepan-1-yl)-3H-quinazolin-4-one] was run?
**A.** 37.6%

**Q.** How did the inhibition at 300 µM turn out when `COc1ccc(C(=O)Nc2ccc(Br)cc2C(=O)NNCc2ccc(C)c(C)c2)cc1OC` [Compound 548, N-{4-Bromo-2-[N′-(3,4-dimethyl-benzyl)-hydrazinocarbonyl]-phenyl}-3,4-dimethoxy-benzamide] was run?
**A.** 85.7%

**Q.** How did the inhibition at 300 µM turn out when `Cc1ccc(/C=N/NC(=O)c2cc(Cl)ccc2NC(=O)c2cccc(CN(C)CCCN(C)Cc3cccc(C(=O)Nc4ccc(Cl)cc4C(=O)N/N=C/c4ccc(C)cc4)c3)c2)cc1` [Compound 702, N1-[4-Chloro-2-({2-[(E)-1-(4-methylphenyl)methylidene]-hydrazino}carbonyl}phenyl}-3-{[{3-[(3-{[4-chloro-2-({2-[(E)-1-(4-methylphenyl)methylidene]hydrazino}carbonyl}anilino}carbonyl}benzyl}(methyl)amino)propyl)(methyl)amino]methyl]benzamide] was run?
**A.** 49.2%
